From US10294202B2, “Pyrrolidinones as herbicides” (FMC Corporation, priority 2013, dated 2019) come the findings set out here.

One experiment deals with crabgrass, large. Nature of the experiment: Test A pre-/postemergence herbicide test. In kind it is in vivo, Digitaria sanguinalis. In a few lines: (§1)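 Visual injury ratings, 0 = no effect, 100 = complete control, taken ~10 days after treatment against untreated greenhouse controls. Preemergence: directed soil spray onto seeded loam/sand pots. Postemergence: spray onto plants at one- to two-leaf stage, 2–10 cm tall.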

The next experiment relates to morningglory. Nature of the experiment: Test A pre-/postemergence herbicide test. In kind it is in vivo, Ipomoea spp. In a few lines:
as §1

The test system of the next experiment is velvetleaf. Briefly: Test A pre-/postemergence herbicide test. The experiment is classed as in vivo, Abutilon theophrasti. In a few lines: as §1
For a further experiment, the system named is corn. Nature of the experiment: Test A pre-/postemergence herbicide test. In kind it is in vivo, Zea mays. In a few lines:
as §1

For another experiment, the system named is blackgrass. Briefly: Test C pre-/postemergence herbicide test. The experiment is classed as in vivo, Alopecurus myosuroides. In a few lines:
(§2)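 Pre- and postemergence greenhouse screen. Preemergence treatment went onto freshly planted seeds in loam–sand soil; postemergence treatment went onto plants 2 to 18 cm tall at the 1- to 4-leaf stage in sphagnum peat/vermiculite medium. Scoring at 13 to 15 days used a 0–100 control scale.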

In another experiment the test system is wheat (winter wheat). Briefly: Test C pre-/postemergence herbicide test. The experiment is classed as in vivo, Triticum aestivum. In a few lines: as §2
A further experiment has as its system chickweed. Briefly: Test C postemergence herbicide test. In kind it is in vivo, Stellaria media. The source says: At the same time, plants selected from these crop and weed species and also barley (winter barley, Hordeum vulgare), […]), chickweed (common chickweed, Stellaria media), deadnettle (henbit deadnettle, Lamium amplexicaule), and canarygrass (littleseed canarygrass, Phalaris minor) were planted in pots containing Redi-Earth® planting medium (Scotts Company, 14111 Scottslawn Road, Marysville, Ohio 43041) comprising spaghnum peat moss, vermiculite, wetting agent and starter nutrients and treated with postemergence applications of test chemicals formulated in the same manner. Plants ranged in height from 2 to 18 cm (1- to 4-leaf stage) for postemergence treatments. Treated plants and controls were maintained in a greenhouse for 13 to 15 days, after which time all species were compared to controls and visually evaluated. Plant response ratings, summarized in Table C, are based on a scale of 0 to 100 where 0 is no effect and 100 is complete control. A dash (-) response means no test result.

[1] abbreviates: Postemergence, 125 g ai/ha, 0 to 100 scale, 0 no effect, 100 complete control.
The mark [2] stands for this setting: Postemergence, 500 g ai/ha, 0 to 100 scale (0 no effect, 100 complete control).
Setting [3] is: Preemergence, 125 g ai/ha, visual rating on 0 to 100 scale (0 no effect, 100 complete control).
[4] abbreviates: preemergence, 500 g ai/ha, 0 to 100 scale.
[5] abbreviates: Postemergence, 31 g ai/ha, scale 0 (no effect) to 100 (complete control).
Where [6] appears, read: Postemergence, 62 g ai/ha, scale 0 to 100 (0 no effect, 100 complete control).
Setting [7] is: Postemergence, 125 g ai/ha, scale 0 to 100 (0 no effect, 100 complete control).
The mark [8] stands for this setting: Postemergence, 250 g ai/ha, scale 0 to 100 (0 no effect, 100 complete control).
[9] abbreviates: Preemergence, 31 g ai/ha, scale 0 to 100, 0 is no effect and 100 is complete control.
[10] abbreviates: Preemergence, 62 g ai/ha, scale 0 to 100.
Where [11] appears, read: Preemergence, 125 g ai/ha, scale 0 to 100 (0 no effect, 100 complete control).
Setting [12] is: 125 g ai/ha, scale 0 to 100 (0 no effect, 100 complete control).
[13] abbreviates: 250 g ai/ha, scale 0 to 100 (0 no effect, 100 complete control).
[14] abbreviates: Postemergence, 125 g ai/ha, visual rating on 0 to 100 scale (0 no effect, 100 complete control), approx. 10 days.
Where [15] appears, read: Postemergence, 31 g ai/ha, scale 0 to 100 (0 no effect, 100 complete control).
Where [16] appears, read: Postemergence, 62 g ai/ha, scale 0 (no effect) to 100 (complete control).
[17] abbreviates: Preemergence, 62 g ai/ha, scale 0 to 100 (0 no effect, 100 complete control).
The mark [18] stands for this setting: Preemergence, 125 g ai/ha, scale 0 to 100.
The mark [19] stands for this setting: 31 g ai/ha, scale 0 to 100 (0 no effect, 100 complete control).
[20] abbreviates: 62 g ai/ha, scale 0 (no effect) to 100 (complete control).
The mark [21] stands for this setting: Postemergence, 125 g ai/ha, 0 to 100 scale, 0 is no effect, 100 is complete control.

In the case of `O=C1NCC(c2ccccc2)C1C(=O)Nc1ccccc1F` (racemic) [Compound 81], the “Plant response rating, Crabgrass, Large” value came out at 50 in the experiment on crabgrass, large (setting [1]); 80 in the experiment with crabgrass, large (setting [2]); 90 in the experiment with crabgrass, large (setting [4]). For the same compound, in the experiment with crabgrass, large (setting [3]), the “Crabgrass, Large plant response rating” value was 80. The “Plant response rating, Morningglory” value in the experiment on morningglory (setting [1]) turned out to be 0; with morningglory (setting [2]), 0; in the experiment with morningglory (setting [4]), 20. Further, the “Morningglory plant response rating” value in the experiment with morningglory (setting [3]) was found to be 0. Moreover, the “Plant response rating, Velvetleaf” value in the experiment on velvetleaf (setting [1]), with velvetleaf (setting [2]) and in the experiment on velvetleaf (setting [4]) was 0 throughout. For the same compound, the “Velvetleaf plant response rating” value with velvetleaf (setting [3]) turned out to be 0. Besides, the “Plant response rating, Corn” value in the experiment with corn (setting [1]), in the experiment with corn (setting [2]) and in the experiment on corn (setting [4]) was 0 throughout. Besides, the “Corn plant response rating” value with corn (setting [3]) was determined as 0. For the same compound, the “Plant response rating, Blackgrass” value in the experiment with blackgrass (setting [5]), with blackgrass (setting [6]), in the experiment with blackgrass (setting [7]), with blackgrass (setting [8]), with blackgrass (setting [10]) and in the experiment with blackgrass (setting [11]) was 0 each time. Moreover, in the experiment on blackgrass (setting [9]), the “Blackgrass plant response rating” value is given as 0. Also, the “Plant response rating (scale of 0 to 100), Blackgrass” value in the experiment on blackgrass (Preemergence, 250 g ai/ha) was determined as 0. Besides, the “Plant response rating, Wheat” value in the experiment with wheat (winter wheat) (setting [5]), in the experiment on wheat (winter wheat) (setting [6]), in the experiment on wheat (winter wheat) (setting [7]), in the experiment on wheat (winter wheat) (setting [8]), with wheat (winter wheat) (setting [10]) and in the experiment on wheat (winter wheat) (setting [11]) was 0 in each case. For the same compound, in the experiment with wheat (winter wheat) (setting [9]), the “Wheat plant response rating” value is recorded as 0. The “Plant response rating (scale of 0 to 100), Wheat” value with wheat (winter wheat) (Preemergence, 250 g ai/ha) turned out to be 0. The “Plant response rating, Chickweed” value in the experiment on chickweed (31 g ai/ha, scale 0 (no effect) to 100 (complete control)) stood at 0; in the experiment with chickweed (62 g ai/ha, scale 0 to 100 (0 no effect, 100 complete control)) it was 0; in the experiment on chickweed (setting [12]) it was 0; with chickweed (setting [13]), 0.
As to `O=C1NCC(c2cccc(Br)c2)C1C(=O)Nc1cccc(F)c1F` (stereo not drawn) [Compound 309], the “Plant response rating, Corn” value in the experiment with corn (setting [14]) stood at 30; in the experiment on corn (setting [2]), 80. Also, the “Plant response rating, Blackgrass” value came to 0 in the experiment with blackgrass (setting [15]); 0 with blackgrass (setting [16]); 5 in the experiment with blackgrass (setting [7]); 5 in the experiment on blackgrass (setting [8]); 50 in the experiment on blackgrass (setting [18]). For the same compound, the “Blackgrass plant response rating” value in the experiment with blackgrass (setting [9]) and in the experiment with blackgrass (setting [17]) was 0 throughout. Besides, the “Plant response rating (scale of 0 to 100), Blackgrass” value in the experiment with blackgrass (Preemergence, 250 g ai/ha) stood at 45. Also, the “Plant response rating, Wheat” value with wheat (winter wheat) (setting [15]), with wheat (winter wheat) (setting [16]), in the experiment with wheat (winter wheat) (setting [7]), in the experiment on wheat (winter wheat) (setting [8]) and in the experiment on wheat (winter wheat) (setting [18]) was 0 throughout. In the experiment on wheat (winter wheat) (setting [17]), the “Wheat plant response rating” value worked out at 0. Moreover, in the experiment with wheat (winter wheat) (Preemergence, 250 g ai/ha), the “Plant response rating (scale of 0 to 100), Wheat” value worked out at 0. Also, the “Plant response rating, Chickweed” value is recorded as 30 in the experiment on chickweed (setting [19]), 50 in the experiment on chickweed (setting [20]), 65 in the experiment on chickweed (setting [12]) and 70 in the experiment on chickweed (setting [13]).
For the compound `O=C1NCC(c2cc(F)cc(F)c2)C1C(=O)Nc1ccc(F)cc1F` (racemic) [Compound 278], the “Plant response rating, Corn” value in the experiment with corn (setting [21]) and in the experiment with corn (setting [2]) was 0 throughout. For the same compound, the “Plant response rating, Blackgrass” value with blackgrass (setting [15]), with blackgrass (setting [16]), in the experiment with blackgrass (setting [7]), in the experiment on blackgrass (setting [8]) and in the experiment with blackgrass (setting [11]) was 0 each time. Also, the “Blackgrass plant response rating” value in the experiment with blackgrass (setting [9]) and in the experiment with blackgrass (setting [17]) was 0 each time. The “Plant response rating (scale of 0 to 100), Blackgrass” value in the experiment with blackgrass (Preemergence, 250 g ai/ha) is listed as 0. For the same compound, the “Plant response rating, Wheat” value in the experiment with wheat (winter wheat) (setting [15]), in the experiment with wheat (winter wheat) (setting [16]), in the experiment with wheat (winter wheat) (setting [7]) and with wheat (winter wheat) (setting [8]) was 0 in each case. For the same compound, the “Wheat plant response rating” value with wheat (winter wheat) (setting [9]) and in the experiment on wheat (winter wheat) (setting [17]) was 0 in each case. Also, the “Plant response rating (scale of 0 to 100), Wheat” value with wheat (winter wheat) (Preemergence, 250 g ai/ha) is recorded as 0. The “Plant response rating, Chickweed” value in the experiment with chickweed (setting [19]), in the experiment with chickweed (setting [20]), with chickweed (setting [12]) and in the experiment on chickweed (setting [13]) was 0 each time.
In the case of `O=C1NCC(c2cc(F)cc(F)c2)C1C(=O)Nc1cccc(F)c1F` (racemic) [Compound 279], the figures for the “Plant response rating, Corn” value in the experiment with corn (setting [21]) and with corn (setting [2]) were 40 and 70, respectively. The “Plant response rating, Blackgrass” value with blackgrass (setting [15]) is 0; with blackgrass (setting [16]) it was 0; in the experiment on blackgrass (setting [7]), 0; with blackgrass (setting [8]), 0; with blackgrass (setting [11]), 30. For the same compound, the “Blackgrass plant response rating” value in the experiment with blackgrass (setting [9]) and in the experiment with blackgrass (setting [17]) was 0 throughout. In addition, the “Plant response rating (scale of 0 to 100), Blackgrass” value in the experiment on blackgrass (Preemergence, 250 g ai/ha) came out at 85. Besides, the “Plant response rating, Wheat” value in the experiment with wheat (winter wheat) (setting [15]), with wheat (winter wheat) (setting [16]), in the experiment on wheat (winter wheat) (setting [7]) and in the experiment on wheat (winter wheat) (setting [8]) was 0 throughout. The figures for the “Wheat plant response rating” value in the experiment with wheat (winter wheat) (setting [9]) and with wheat (winter wheat) (setting [17]) were 0 and 15, respectively. Besides, the “Plant response rating (scale of 0 to 100), Wheat” value with wheat (winter wheat) (Preemergence, 250 g ai/ha) was found to be 30. Further, the “Plant response rating, Chickweed” value in the experiment with chickweed (setting [19]) came out at 5; in the experiment on chickweed (setting [20]), 75; with chickweed (setting [12]), 30; in the experiment on chickweed (setting [13]), 5.
Consider `CN1CC(c2ccc(F)c(F)c2)C(C(=O)Nc2ccccc2F)C1=O` (stereo not drawn) [Compound 302], for which the “Plant response rating, Corn” value in the experiment on corn (setting [14]) was 0; in the experiment with corn (setting [2]), 40. The “Plant response rating, Blackgrass” value in the experiment with blackgrass (setting [15]) is given as 0; with blackgrass (setting [16]), 0; with blackgrass (setting [7]) it was 0; in the experiment on blackgrass (setting [8]), 5; with blackgrass (setting [11]) it was 60. The figures for the “Blackgrass plant response rating” value with blackgrass (setting [9]) and in the experiment with blackgrass (setting [17]) were 0 and 30, respectively. In the experiment on blackgrass (Preemergence, 250 g ai/ha), the “Plant response rating (scale of 0 to 100), Blackgrass” value is 85. The “Plant response rating, Wheat” value in the experiment on wheat (winter wheat) (setting [15]), in the experiment on wheat (winter wheat) (setting [16]), with wheat (winter wheat) (setting [7]) and with wheat (winter wheat) (setting [8]) was 0 throughout. In addition, the “Wheat plant response rating” value in the experiment with wheat (winter wheat) (setting [9]) is 0; with wheat (winter wheat) (setting [17]), 5. Also, in the experiment with wheat (winter wheat) (Preemergence, 250 g ai/ha), the “Plant response rating (scale of 0 to 100), Wheat” value is recorded as 30. Also, the “Plant response rating, Chickweed” value stood at 0 in the experiment on chickweed (setting [19]), 0 in the experiment with chickweed (setting [20]), 5 in the experiment on chickweed (setting [12]) and 70 in the experiment with chickweed (setting [13]).
